{"source": "paper PMC2847018", "about": "(Biochemical pharmacology, 2010)", "key": {"[1]": {"experiment": "Kinetics of bupropion reduction by human placental microsomes", "type": "in vitro ADME", "conditions": "Mean±S.D. of HPM 1-6"}, "[2]": {"test_system": "placental carbonyl-reducing enzymes (human placental microsomes)", "type": "biochemical", "conditions": "bupropion 40 μM, pooled placental microsomes, 40 min 37°C; for effect on formation of threo- and erythrohydrobupropion: inhibitor 500 μM"}, "[3]": {"test_system": "placental carbonyl-reducing enzymes (human placental microsomes)", "experiment": "Type of inhibition and Ki of 18β-GA on bupropion reduction", "type": "biochemical", "conditions": "Lineweaver-Burk plot: apparent Km increased, Vmax not affected"}, "11β-HSD1": {"test_system": "11β-HSD1", "conditions": "11β-HSD1 ref 44; cited from earlier work"}}, "note": "Entries after “also recorded” stand apart in the source; their conditions may differ. Where a name gives a salt, the structure may show the parent alone. Read-outs that look alike come from different tables or passages of the source.", "data": [{"smiles": "CC(NC(C)(C)C)C(=O)c1cccc(Cl)c1", "note": "(stereo not shown) [bupropion, Bupropion hydrochloride]", "values": [{"measurement": "Vmax, erythrohydrobupropion formation", "setting": "[1]", "result": "3.1±1.2 picomoles per minute per milligram of protein"}, {"measurement": "Vmax, threohydrobupropion formation", "setting": "[1]", "result": "18.6±6.1 picomoles per minute per milligram of protein"}]}, {"smiles": "CC1(C)[C@@H](O)CC[C@]2(C)[C@H]3C(=O)C=C4[C@@H]5C[C@@](C)(C(=O)O)CC[C@]5(C)CC[C@@]4(C)[C@]3(C)CC[C@@H]12", "note": "[18β-GA, 18β-glycyrrhetinic acid]", "values": [{"measurement": "inhibition of formation of threo- and erythrohydrobupropion", "setting": "[2]; inhibitor 0.1 μM", "result": 80, "unit": "%"}, {"measurement": "type of inhibition of bupropion reduction", "setting": "[3]", "result": "competitive"}, {"measurement": "IC50", "setting": "11β-HSD1", "result": "[…]"}]}, {"smiles": "CC1=CC(=O)c2ccccc2C1=O", "note": "[menadione]", "values": [{"measurement": "inhibition of formation of threo- and erythrohydrobupropion", "setting": "[2]; inhibitor 100 μM", "result": 70, "unit": "%"}]}, {"smiles": "CCC1(CC)C(=O)NC(=O)NC1=O", "note": "[barbital]", "values": [{"measurement": "effect on formation of threo- and erythrohydrobupropion", "setting": "[2]", "result": "did not inhibit"}]}, {"smiles": "Cc1cn[nH]c1", "note": "[4-methylpyrazole]", "values": [{"measurement": "effect on formation of threo- and erythrohydrobupropion", "setting": "[2]", "result": "did not inhibit"}]}, {"smiles": "O=c1oc2ccccc2c(O)c1Cc1c(O)c2ccccc2oc1=O", "note": "[dicumarol]", "values": [{"measurement": "effect on formation of threo- and erythrohydrobupropion", "setting": "[2]", "result": "did not inhibit; also recorded: did not affect"}]}, {"smiles": "O=C(O)c1ccccc1Nc1cccc(C(F)(F)F)c1", "note": "[flufenamic acid]", "values": [{"measurement": "inhibition of formation of threo- and erythrohydrobupropion", "setting": "[2]; inhibitor 4 μM", "result": 50, "unit": "%"}]}]}
